Read-outs that look alike come from different tables or passages of the source.
What was measured:
[1] = injection dose 60 mg of 10B stable isotope per kilogram of human body weight; cited from earlier work
[2] = 4 hours after the injection
Experimental: Before measuring boron concentration of a sample, it needs to undergo microwave digestion first. A sample was initially placed into a Teflon high-pressure digestion vessel, then added with 3 mL of concentrated nitric acid (14N, 65%) and 0.5 mL of hydrogen peroxide (30-35%), and the vessel was sealed before placing the vessel into a microwave digestion system (MLS 1200 Milestone, Italia) for sample decomposition. […] The sample subsequently turned into a clear solution after complete digestion. After diluting the sample with deionized water, an Inductively Coupled Plasma Atomic Emission Spectrometer (ICP-AES, OPTIMA 2000 DV, PerkinElmer Instruments) was used to measure the boron concentration of the sample. For the conditions of the analysis, the temperature of argon plasma was set at 6000-7000 K; the analytical wavelength was set at 249.773 nm, and the liquid uptake rate was set at approximately 2 mL/min; the operating voltage after the formation of plasma was set at 40 V.

[3] = Experimental: The serum biochemical parameters of the rats were monitored by drawing blood samples from the rats' tail veins once before the tumor implantation, and weekly after the tumor implantation. When a rat was sacrificed, a blood sample was also drawn from its heart. Whole blood was collected from a rat and held in a serum separation tube (Vacationer, Franklin Lakes, N.J., USA), then centrifuged for 15 minutes at 3000 rpm, followed by preserving the serum upper clean solution by freezing. Afterwards, the College of Veterinary Medicine of National Chung Hsing University was commissioned with the task of analyzing the serum biochemical parameters of this solution, in which a serum biochemical analyzer (Chiron Diagnostics Corporation, Oberlin, Ohio, USA) was utilized to analyze concentrations of the serum enzymes related to liver and kidney functions.
[4] = liver tumor-bearing SD rats, 25 mg B/kg bw one-shot i.v., n = 12
[5] = tested on: GS-9L, U-343MGa, HeLa, V79, and B16 cells; conditions: cited from earlier work
[6] = tested on: N1-S1 rat hepatoma liver tumor
Experimental: The implantation of tumor cells: before anesthesia, the SD rats were subcutaneously injected with 0.1 mg/kg bw of Atropine, so as to inhibit the secretion of respiratory tract and salivary gland caused by anesthetics, and prevent bradycardia resulted from the overactivity of vagus nerve. After administering Atropine for 10-15 minutes, the rats were intraperitoneally injected with 20-40 mg/kg bw of Zoletil 50 and 10 mg/kg bw of Xylazine to anesthetize and sedate the animals. After the anesthetia, the subxiphoid incision was done to allow for tumor implantation. A surgical area on the rat was shaved and disinfected with 75% alcohol and iodine, and then a 3-cm incision was made along the midline of thin layer; the muscle layer was elevated to make an opening smaller than the skin layer, and both sides of the rat's abdomen was gently pressed to reveal the liver. A 29 G syringe was loaded with the N1-S1 tumor cell suspension in advance, and then used to slowly inject the suspension into a hepatic lobe of the rat; each of the rats were injected with 6×10^6 cell/0.1 mL of the suspension. After the implantation, the peritoneum was stitched back with an absorbable suture, before using a nylon suture to stitch back the skin layer. The operated rats were then released back into the cage, and their activities and survival were continuously monitored.
A commercial ultrasound scanner (TOSHIBA Xario) was used to scan the liver tumors, and a linear probe (PLT-1204BT) was used because it imparts better resolution; the frequency of the scanning was set at 14 MHz. After the anesthesia, the experimental animals were subjected to B-mode ultrasound imaging, so as to confirm whether the induction and growth of the tumors. […] Sagittal sections and transverse sections were obtained for the experimental animals before the BNCT treatment, and on the 10th, 30th, 60th, and 80th day after the BNCT treatment, in order to estimate the size of the tumors, and also combined Doppler mode with 3D imaging to evaluate the distribution of vasculature in the tumors, as well as the relative position of the tumors in the abdominal cavities.
The experimental animals were divided into three groups; a normal group (which was made up of normal rats), a tumor comparison group (in which the rats received the implantation of tumor cells but not the BNCT treatment), and a BNCT treatment group; the BNCT treatment group was divided into subgroups of rats that received different physical doses of irradiation.
The rats implanted with the N1-S1 tumor cells were subjected to the BNCT treatment on the 17th day after the implantation. […] At 15 minutes before the irradiation, the rats were injected with Atropine and Zoletil to allow for longer anesthesia. Each of the rats were placed on a fixing frame with its tumor-bearing area close to the beam aperture of the Tsing Hua Open-pool Reactor (THOR), and then different duration of neutron irradiation was performed under a specific neutron flux, in order to acquire a specific irradiation dose. After the irradiation, an on-line neutron monitoring system for the THOR was used to confirm the actual irradiation dose.
The tumor was scanned by using a commercial ultrasound scanner (TOSHIBA Xario), and the scanning frequency was set at 14 MHz. […] Ultrasound imaging was used to track growths or disappearances of the tumors, as well as changes in the blood vessels surrounding the tumors within 80 days of the BNCT treatment. The 2D mode of ultrasound imaging was employed to confirm the status of a tumor, and sagittal and transverse sections were obtained to estimate the size of the tumor, and the Doppler mode was combined with 3D imaging to evaluate the distribution of vasculature in the tumor, as well as in surroundings thereof.

[7] = 4 days after the BNCT treatment
[8] = G2, day −1 (before BNCT, baseline)
[9] = G3, day −1 (before BNCT, baseline)

## OB(O)O [boric acid]
[1]
  adverse effect of injected boric acid: no permanent adverse effect
[2]
  difference between the boron concentrations in the tumors and the normal liver cells: insignificant
[3]; [7]
  histopathological section of the testis: did not show any abnormalities
[3]; BNCT treatment group
  change of GPT after the BNCT treatment: returned to normal
[3]; BNCT treatment group, one month after the BNCT treatment
  change in BUN (kidney function): did not show any meaningful changes
[3]; BNCT treatment groups
  clinical signs after BNCT: slight diarrhea and appetite loss
[3]; G1 (11.18 Gy), 8 days after the irradiation
  lowest body weight relative to the initial weight: 78%
[3]; G1 (11.18 Gy), day −1 (before BNCT, baseline), normal 83-118
  GOT (AST), serum: 250 ± 148 U/L
[3]; G1, day 11 after BNCT
  BUN, serum: 15 ± 7 mg/dL
  GOT (AST), serum: 202 ± 127 U/L
  GPT (ALT), serum: 39 ± 13 U/L
[3]; G1, day 30 after BNCT
  BUN, serum: 14 ± 1 mg/dL
  GOT (AST), serum: 111 ± 29 U/L
  GPT (ALT), serum: 50 ± 5 U/L
[3]; G1, day 80 after BNCT
  BUN, serum: 17 ± 3 mg/dL
  GOT (AST), serum: 127 ± 8 U/L
  GPT (ALT), serum: 54 ± 4 U/L
[3]; G1, day −1 (before BNCT, baseline), normal 11-17
  BUN, serum: 16 ± 2 mg/dL
[3]; G1, day −1 (before BNCT, baseline), normal 35-47
  GPT (ALT), serum: 54 ± 7 U/L
[3]; G2 (7.97 Gy), 4 days after the irradiation
  lowest body weight relative to the initial weight: 89%
[3]; G2 (7.97 Gy), day −1 (before BNCT, baseline)
  GOT (AST), serum: 271 ± 39 U/L
[3]; G2, day 11 after BNCT
  BUN, serum: 13 ± 2 mg/dL
  GOT (AST), serum: 204 ± 9 U/L
  GPT (ALT), serum: 45 ± 15 U/L
[3]; G2, day 30 after BNCT
  BUN, serum: 17 ± 5 mg/dL
  GOT (AST), serum: 144 ± 20 U/L
  GPT (ALT), serum: 57 ± 3 U/L
[3]; G2, day 80 after BNCT
  BUN, serum: 16 ± 2 mg/dL
  GOT (AST), serum: 116 ± 8 U/L
  GPT (ALT), serum: 62 ± 13 U/L
[3]; [8]
  BUN, serum: 12 ± 1 mg/dL
  GPT (ALT), serum: 56 ± 9 U/L
[3]; G3 (5.61 Gy), 3 days after the irradiation
  lowest body weight relative to the initial weight: 92%
[3]; G3 (5.61 Gy), day −1 (before BNCT, baseline)
  GOT (AST), serum: 168 ± 19 U/L
[3]; G3, day 11 after BNCT
  BUN, serum: 15 ± 3 mg/dL
  GOT (AST), serum: 180 ± 8 U/L
  GPT (ALT), serum: 53 ± 4 U/L
[3]; G3, day 30 after BNCT
  BUN, serum: 14 ± 3 mg/dL
  GOT (AST), serum: 153 ± 3 U/L
  GPT (ALT), serum: 55 ± 6 U/L
[3]; G3, day 80 after BNCT
  BUN, serum: 18 ± 3 mg/dL
  GOT (AST), serum: 133 ± 41 U/L
  GPT (ALT), serum: 58 ± 12 U/L
[3]; [9]
  BUN, serum: 13 ± 1 mg/dL
  GPT (ALT), serum: 50 ± 10 U/L
[3]; all three subgroups of the BNCT treatment group
  change of liver enzyme GOT after the BNCT treatment: decreased rapidly
[3]; liver tumor-bearing rats after BNCT with 10B-boric acid
  radiation damage in pancreases and spleens, tissue histopathological sections: did not show radiation damage
[3]; one month after the BNCT irradiation, degree related to irradiation dose
  radiation effect in the testis: atrophy of seminiferous tubules
[3]; only rats that received 11.18 Gy (G1)
  testis effect: clear testicular atrophy
[4]
  Cmax, highest drug concentration in blood: 104.6 ± 36.23 ppm
[5]; previous studies
  accumulation efficiency in the cells: 1
[5]; simple or passive diffusion
  ratio of boron concentrations intracellularly and extracellularly: 1
[6]; 30th day after BNCT treatment
  reduction of tumor size: approximately 90%
[6]; [7]
  histopathology of tumor cells, high magnification: shrunk in size, become hollow, broken down and dead
[6]; G1 (11.18 Gy), 30 days after BNCT
  tumor shrinkage ratio (ultrasound): 0.94 ± 0.01
[6]; G1 (11.18 Gy), 60 days after BNCT
  tumor shrinkage ratio (ultrasound): 0.94 ± 0.02
[6]; G1 (11.18 Gy), 80 days after BNCT
  tumor shrinkage ratio (ultrasound): 0.95 ± 0.02
[6]; G1 (tumor physical dose 11.18 Gy), boric acid 25 mg 10B/kg i.v., 11 days after BNCT, 0 = initial size, 1 = vanished
  tumor shrinkage ratio (ultrasound): 0.64 ± 0.07
[6]; G1, G2 and G3, 8th, 12th, 18th day after BNCT
  distribution of blood flow surrounding the tumor (Doppler imaging): gradually decreased until it could no longer be detected
[6]; G2 (7.97 Gy), 30 days after BNCT
  tumor shrinkage ratio (ultrasound): 0.89 ± 0.05
[6]; G2 (7.97 Gy), 60 days after BNCT
  tumor shrinkage ratio (ultrasound): 0.86 ± 0.07
[6]; G2 (7.97 Gy), 80 days after BNCT
  tumor shrinkage ratio (ultrasound): 0.91 ± 0.05
[6]; G2 (tumor physical dose 7.97 Gy), 11 days after BNCT
  tumor shrinkage ratio (ultrasound): 0.62 ± 0.1
[6]; G3 (5.61 Gy), 30 days after BNCT
  tumor shrinkage ratio (ultrasound): 0.77 ± 0.06
[6]; G3 (5.61 Gy), 60 days after BNCT
  tumor shrinkage ratio (ultrasound): 0.83 ± 0.08
[6]; G3 (5.61 Gy), 80 days after BNCT
  tumor shrinkage ratio (ultrasound): 0.87 ± 0.04
[6]; G3 (tumor physical dose 5.61 Gy), 11 days after BNCT
  tumor shrinkage ratio (ultrasound): 0.48 ± 0.42
[6]; liver tumor-bearing rats
  liver cancer in the rats after BNCT with 10B-boric acid: completely disappeared
[6]; one month after the BNCT treatment
  smallest tumor, size relative to the original size: 6%
[6]; three subgroups G1-G3, one month after the BNCT treatment
  tumor size relative to the original tumor size: less than or equal to 22%
[6]; up to 80 days after the BNCT treatment
  new growth or recurrence of the tumors (ultrasound tracking): did not reveal any new growth or recurrence of the tumors

Source: patent US9168301B2 (NATIONAL TSING HUA UNIVERSITY, priority 2011, dated 2015)
